Tested on: 633275-114-R-J1-PDC complex spheroids, viability
Assay: Anticancer human tumor 633275-114-R-J1-PDC patient-derived endometrial adenocarcinoma cell line growth inhibition [GQUAD]
Settings: for IC50: curve of first compound; for viability, T/C: stronger effect = lower value
From the text: DNA G-quadruplex Stabilizer Agents in Combinations in Complex Spheroids
A high-throughput screen of multi-cell type tumor spheroids was designed to identify active combinations of DNA G-quadruplex stabilizer agents and targeted small molecules. Complex spheroids include a stromal component modeled by human endothelial cells (HUVEC) and fibroblasts modeled by human mesenchymal stem cells (MSCs). The concentration ranges selected for each drug and investigational agent were based upon clinically achievable concentrations if the clinical Cmax of the agent was known.
Compounds. The drugs and investigational agents: pidnarulex (CX-5461; NSC782164), APTO-253 (NSC789042), BRACO-19 (NSC847499), peposertib (NSC802822), ceralasertib (NSC780249), elimusertib (NSC800525), camonsertib (NSC841442), AZD-1390 (NSC803789), olaparib (NSC753686), talazoparib (NSC767125), ART-558 (NSC835418), sotorasib (NSC818433), MRTX-1133 (NSC836407), SN-38 (NSC673596), topotecan (NSC609699), etoposide (NSC141540), doxorubicin (NSC123127), gemcitabine (NSC613327), 5-fluorouracil (NSC19893), paclitaxel (NSC125973), vemurafenib (NSC761431), panobinostat (NSC761190), R-306465 (JNJ-16241199; NSC773264), adavosertib (NSC754352), TP-3654 (NSC805149), carboplatin (NSC241240), KSQ-4279 (NSC840948), and staurosporine (NSC755774) were obtained from the National Cancer Institute (NCI) Developmental Therapeutics Program Chemical Repository (34). The FDA-approved anticancer drug set is available from the NCI Developmental Therapeutics Program. […] The stock solutions were prepared in dimethyl sulfoxide (DMSO, Sigma-Aldrich, St. Louis, MO, cat. D2650) at 800-fold the tested concentration and stored at -70 degrees C prior to their use. All drugs and investigational agents were tested over a range starting from a high concentration at or near the clinical Cmax and decreasing in half-log increments. If the clinical Cmax for an agent had not been determined, the highest concentration tested was 10 microM.
2.3 Cell Culture. All cells were maintained in an incubator at 37 degrees C and 5% CO2 with 95% humidity. The PDC lines were cultured according to standard operating procedures established by the NCI PDMR. All PDCs were thawed and cultured in Matrigel-coated flasks prepared with a working solution of 1X Ham's F-12 nutrient mix, without supplementation (Invitrogen, cat. 11765054), 100 U/mL penicillin-streptomycin (Invitrogen, cat. 15140122), and 2.5% Matrigel (Corning Inc., cat. 354248) for the first three passages. The 857933-349-R-J2-PDC line was cultured in 6C/Colon 1B media, which includes advanced DMEM/F-12 (Thermo Fisher Scientific, cat. 12634028), 10 mM HEPES (Thermo Fisher Scientific, cat. 15630080), 1X GlutaMAX supplement (Thermo Fisher Scientific, cat. 35050061), 0.1 mg/mL primocin (InvivoGen, cat. ant-pm-2), 10% defined fetal bovine serum, heat inactivated (HyClone Laboratories Inc., cat. SH30070.03HI), 50% L-WRN conditioned media (ATCC, cat. CRL-3276), 1.25 mM N-Acetyl-L-cysteine (Sigma-Aldrich, cat. A9165), 10 mM nicotinamide (Sigma-Aldrich, cat. N0636), 1X B-27 supplement (Thermo Fisher Scientific, cat. 17504044), 1X N-2 supplement (Thermo Fisher Scientific, cat. 17502048), 10 microM Y-27632 dihydrochloride (Tocris Bioscience, cat. 1254), and 50 ng/mL human EGF recombinant protein (Thermo Fisher Scientific, cat. PHG0311). The 485176-168-R4-J1-PDC line was cultured in Panc media, which includes all 6C/Colon 1B media components plus 100 ng/mL human FGF-10 (Thermo Fisher Scientific, cat. 100-26), 500 nM SB-431542 (Selleckchem, cat. S1067), and gastrin (Tocris, cat. 3006).
[…]
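Also: spheroids exposed to the agents for seven days.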
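For viability, T/C in this document: percent of DMSO vehicle control viability which is 100%.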

Cc1cccc(N(C)C(=O)C2C(O)CCN2c2nc(C)cc(C(F)(F)F)c2C#N)c1 (configuration not stated) + CN(C)c1ccc(Nc2c3ccc(NC(=O)CCN4CCCC4)cc3nc3cc(NC(=O)CCN4CCCC4)ccc23)cc1
IC50 (second compound 0.0316 µM): > 10 µM
IC50 (second compound 0.1 µM): > 10 µM
IC50 (second compound 0.316 µM): > 10 µM
IC50 (second compound 1 µM): > 10 µM
IC50 (second compound 3.16 µM): 8.55 µM
IC50 (second compound 10 µM): < 0.0316 µM
viability, T/C (second compound 0.0316 µM, first compound 0.0316 µM): 102%
viability, T/C (second compound 0.0316 µM, first compound 0.1 µM): 99.2%
viability, T/C (second compound 0.0316 µM, first compound 0.316 µM): 105%
viability, T/C (second compound 0.0316 µM, first compound 1 µM): 105%
viability, T/C (second compound 0.0316 µM, first compound 3.16 µM): 96.3%
viability, T/C (second compound 0.0316 µM, first compound 10 µM): 104%
viability, T/C (second compound 0.1 µM, first compound 0.0316 µM): 107%
viability, T/C (second compound 0.1 µM, first compound 0.1 µM): 103%
viability, T/C (second compound 0.1 µM, first compound 0.316 µM): 104%
viability, T/C (second compound 0.1 µM, first compound 1 µM): 99.5%
viability, T/C (second compound 0.1 µM, first compound 3.16 µM): 101%
viability, T/C (second compound 0.1 µM, first compound 10 µM): 97.8%
viability, T/C (second compound 0.316 µM, first compound 0.0316 µM): 99.3%
viability, T/C (second compound 0.316 µM, first compound 0.1 µM): 94.4%
viability, T/C (second compound 0.316 µM, first compound 0.316 µM): 101%
viability, T/C (second compound 0.316 µM, first compound 1 µM): 91%
viability, T/C (second compound 0.316 µM, first compound 3.16 µM): 94%
viability, T/C (second compound 0.316 µM, first compound 10 µM): 85.3%
viability, T/C (second compound 1 µM, first compound 0.0316 µM): 96.2%
viability, T/C (second compound 1 µM, first compound 0.1 µM): 96.6%
viability, T/C (second compound 1 µM, first compound 0.316 µM): 97.6%
viability, T/C (second compound 1 µM, first compound 1 µM): 99.5%
viability, T/C (second compound 1 µM, first compound 3.16 µM): 94.6%
viability, T/C (second compound 1 µM, first compound 10 µM): 87.1%
viability, T/C (second compound 3.16 µM, first compound 0.0316 µM): 88.8%
viability, T/C (second compound 3.16 µM, first compound 0.1 µM): 84.8%
viability, T/C (second compound 3.16 µM, first compound 0.316 µM): 95.5%
viability, T/C (second compound 3.16 µM, first compound 1 µM): 82.4%
viability, T/C (second compound 3.16 µM, first compound 3.16 µM): 69.2%
viability, T/C (second compound 3.16 µM, first compound 10 µM): 47%
viability, T/C (second compound 10 µM, first compound 0.0316 µM): 30.5%
viability, T/C (second compound 10 µM, first compound 0.1 µM): 34.7%
viability, T/C (second compound 10 µM, first compound 0.316 µM): 28%
viability, T/C (second compound 10 µM, first compound 1 µM): 29.6%
viability, T/C (second compound 10 µM, first compound 3.16 µM): 28.2%
viability, T/C (second compound 10 µM, first compound 10 µM): 16.1%
